Converted amounts (≈) assume the structure as drawn. Blank lines part the entries; values can stand above or below the compound they belong to.
Assays:
Format in all cases: physicochemical
[1] = Crystal form conversion of comparative crystal forms on drying, at room temperature or on heating
[2] = Dynamic vapor sorption analysis (DVS); conditions: range of 0%-95% relative humidity; mass gain relative to initial mass
Protocol: Dynamic vapor sorption and desorption analysis was measured using DVS Intrinsic (SMS, UK). The test was performed in gradient mode with a humidity change of 50%-95%-0%-50%, with a change of 10% per humidity gradient in the range of 0% to 90%. The gradient endpoint was determined by dm/dt; the gradient endpoint lies where the dm/dt was less than 0.002% and maintained for 10 minutes. After the test was completed, the samples were analyzed by XRPD to confirm whether the solid morphology had changed.

[3] = Stability of different 7,8-dihydroxyflavone crystal forms (XRPD characterization); conditions: for crystal form stability (general statement): performance embodiment, no conditions stated
Protocol: The stability of different 7,8-dihydroxyflavonoid crystal forms was studied under high temperature (60° C.), high humidity (25° C./92.5% RH), illumination (25° C./4500 Lux), and acceleration (40° C./75% RH) conditions, and samples were taken for XRPD characterization on day 7 and day 15, respectively.

[4] = Dynamic solubility in biological medium (FaSSIF, FeSSIF, FaSSGF) and water
Protocol: The 20 mg of 7,8-dihydroxyflavones in different crystal forms were weighed out separately and added into 4.0 mL of biological medium or water, and shaken at a constant temperature of 37° C. for 24 h. Samples were taken at 0.5 h, 2 h and 24 h, respectively, and the sampled solutions were filtered through 0.22 μm aquo-system filter membranes. Signal peak areas of the solutions were measured by HPLC, and finally, concentrations of the compounds in the solutions were calculated based on the peak areas, HPLC standard curves of the raw materials, and the dilution times. In addition, the supernatant at 24 h was taken to test pH, and the residual solid was subjected to the XRPD test. [table]

[5] = FaSSGF pH 1.6, residual solid after 24 h at 37° C.
[6] = FaSSGF pH 1.6, supernatant at 24 h
[7] = FaSSIF pH 6.5, residual solid after 24 h at 37° C.
[8] = FaSSIF pH 6.5, supernatant at 24 h
[9] = FeSSIF pH 5.0, residual solid after 24 h at 37° C.
[10] = FeSSIF pH 5.0, supernatant at 24 h
[11] = Water, residual solid after 24 h at 37° C.

crystal form conversion ([1]; at room temperature): convert to the crystal form C
Compound: O=c1cc(-c2ccccc2)oc2c(O)c(O)ccc12 [crystal form M, 7,8-dihydroxyflavone]

Compound: O=c1cc(-c2ccccc2)oc2c(O)c(O)ccc12 [crystal form G, 7,8-dihydroxyflavone]
crystal form conversion ([1]; heated to 140° C.): convert to the crystal form T which has a small amount of crystal form J

crystal form conversion ([1]; at room temperature): convert to the crystal form C
Compound: O=c1cc(-c2ccccc2)oc2c(O)c(O)ccc12 [crystal form Q, 7,8-dihydroxyflavone]

crystal form conversion ([1]; at room temperature): tend to convert to the crystal form C
Compound: O=c1cc(-c2ccccc2)oc2c(O)c(O)ccc12 [crystal form B, 7,8-dihydroxyflavone]
crystal form conversion ([1]; at 180° C.): convert to mixed crystals containing the crystal form F and the crystal form J
crystal form conversion ([1]; heated to 110° C.): some characteristic peaks of the crystal form J will appear

Compound: O=c1cc(-c2ccccc2)oc2c(O)c(O)ccc12 [crystal form K, 7,8-dihydroxyflavone]
crystal form conversion ([1]; heated to 150° C. and then cooled to room temperature): convert to mixed crystals of the crystal form F and the crystal form J

crystal form conversion ([1]; at room temperature): convert to the crystal form B
Compound: O=c1cc(-c2ccccc2)oc2c(O)c(O)ccc12 [crystal form F, 7,8-dihydroxyflavone]
crystal form conversion ([1]; heated to 220° C.): convert to mixed crystals of the crystal form J and the crystal form P

crystal form conversion ([1]; under sufficient drying): convert to the crystal form N
Compound: O=c1cc(-c2ccccc2)oc2c(O)c(O)ccc12 [crystal form A, 7,8-dihydroxyflavone]
crystal form conversion ([1]; heated to 130° C.): convert to mixed crystals containing the crystal form F
crystal form conversion ([1]; heated to 160° C.): convert to mixed crystals containing the crystal form F and the crystal form J

crystal form conversion ([1]; at room temperature): convert to the crystal form C
Compound: O=c1cc(-c2ccccc2)oc2c(O)c(O)ccc12 [crystal form O, 7,8-dihydroxyflavone]

Compound: O=c1cc(-c2ccccc2)oc2c(O)c(O)ccc12 [crystal form R, 7,8-dihydroxyflavone]
crystal form conversion ([1]; at room temperature): cannot exist at room temperature for a long period

weight gain in the dynamic vapor sorption plot [2]: less than 0.1%
Result on day 7 (XRPD) ([3]; Acceleration 40° C./75% RH): No change
Result on day 15 (XRPD) ([3]; Acceleration 40° C./75% RH): No change
Result on day 7 (XRPD) ([3]; High humidity 25° C./92.5% RH): No change
Result on day 15 (XRPD) ([3]; High humidity 25° C./92.5% RH): No change
Result on day 7 (XRPD) ([3]; High temperature 60° C.): No change
Result on day 15 (XRPD) ([3]; High temperature 60° C.): No change
Result on day 7 (XRPD) ([3]; Illumination 25° C./4500 Lux): No change
Result on day 15 (XRPD) ([3]; Illumination 25° C./4500 Lux): No change
Solubility 0.5 h ([4]; FaSSGF pH 1.6, 37° C.): 2.5 µg/mL (≈ 9.83 µM)
Solubility 2 h ([4]; FaSSGF pH 1.6, 37° C.): 2.2 µg/mL (≈ 8.65 µM)
Solubility 24 h ([4]; FaSSGF pH 1.6, 37° C.): 2.4 µg/mL (≈ 9.44 µM)
Residual solid XRPD [4, 5]: Crystal form C
Final pH [4, 6]: 1.6
Solubility 0.5 h ([4]; FaSSIF pH 6.5, 37° C.): 9.0 µg/mL (≈ 35.4 µM)
Solubility 2 h ([4]; FaSSIF pH 6.5, 37° C.): 10.2 µg/mL (≈ 40.1 µM)
Solubility 24 h ([4]; FaSSIF pH 6.5, 37° C.): 9.8 µg/mL (≈ 38.5 µM)
Residual solid XRPD [4, 7]: Crystal form C
Final pH [4, 8]: 6.5
Solubility 0.5 h ([4]; FeSSIF pH 5.0, 37° C.): 33.5 µg/mL (≈ 132 µM)
Solubility 2 h ([4]; FeSSIF pH 5.0, 37° C.): 33.9 µg/mL (≈ 133 µM)
Solubility 24 h ([4]; FeSSIF pH 5.0, 37° C.): 33.2 µg/mL (≈ 131 µM)
Residual solid XRPD [4, 9]: Crystal form C
Final pH [4, 10]: 5.0
Solubility 0.5 h ([4]; Water, 37° C.): 2.6 µg/mL (≈ 10.2 µM)
Solubility 2 h ([4]; Water, 37° C.): 3.1 µg/mL (≈ 12.2 µM)
Solubility 24 h ([4]; Water, 37° C.): 3.3 µg/mL (≈ 13 µM)
Residual solid XRPD [4, 11]: Crystal form C
Final pH ([4]; Water, supernatant at 24 h): 5.5
Compound: O=c1cc(-c2ccccc2)oc2c(O)c(O)ccc12 [Crystal form C, 7,8-dihydroxyflavone]
crystal form stability (general statement) [3]: stable and does not suffer from crystal transformation

weight gain in the dynamic vapor sorption plot [2]: less than 0.1%
Result on day 7 (XRPD) ([3]; Acceleration 40° C./75% RH): No change
Result on day 15 (XRPD) ([3]; Acceleration 40° C./75% RH): No change
Result on day 7 (XRPD) ([3]; High humidity 25° C./92.5% RH): No change
Result on day 15 (XRPD) ([3]; High humidity 25° C./92.5% RH): No change
Result on day 7 (XRPD) ([3]; High temperature 60° C.): No change
Result on day 15 (XRPD) ([3]; High temperature 60° C.): No change
Result on day 7 (XRPD) ([3]; Illumination 25° C./4500 Lux): No change
Result on day 15 (XRPD) ([3]; Illumination 25° C./4500 Lux): No change
Solubility 0.5 h ([4]; FaSSGF pH 1.6, 37° C.): 8.6 µg/mL (≈ 33.8 µM)
Solubility 2 h ([4]; FaSSGF pH 1.6, 37° C.): 8.6 µg/mL (≈ 33.8 µM)
Solubility 24 h ([4]; FaSSGF pH 1.6, 37° C.): 5.6 µg/mL (≈ 22 µM)
Residual solid XRPD [4, 5]: Crystal form P
Final pH [4, 6]: 1.6
Solubility 0.5 h ([4]; FaSSIF pH 6.5, 37° C.): 24.3 µg/mL (≈ 95.6 µM)
Solubility 2 h ([4]; FaSSIF pH 6.5, 37° C.): 25.9 µg/mL (≈ 102 µM)
Solubility 24 h ([4]; FaSSIF pH 6.5, 37° C.): 20.5 µg/mL (≈ 80.6 µM)
Residual solid XRPD [4, 7]: Crystal form P
Final pH [4, 8]: 6.4
Solubility 0.5 h ([4]; FeSSIF pH 5.0, 37° C.): 74.5 µg/mL (≈ 293 µM)
Solubility 2 h ([4]; FeSSIF pH 5.0, 37° C.): 74.3 µg/mL (≈ 292 µM)
Solubility 24 h ([4]; FeSSIF pH 5.0, 37° C.): 71.2 µg/mL (≈ 280 µM)
Residual solid XRPD [4, 9]: Crystal form P
Final pH [4, 10]: 5.0
Solubility 0.5 h ([4]; Water, 37° C.): 11.2 µg/mL (≈ 44.1 µM)
Solubility 2 h ([4]; Water, 37° C.): 10.6 µg/mL (≈ 41.7 µM)
Solubility 24 h ([4]; Water, 37° C.): 10.6 µg/mL (≈ 41.7 µM)
Residual solid XRPD [4, 11]: Crystal form P
Final pH ([4]; Water, supernatant at 24 h): 4.6
Compound: O=c1cc(-c2ccccc2)oc2c(O)c(O)ccc12 [Crystal form P, 7,8-dihydroxyflavone]
crystal form stability (general statement) [3]: stable and does not suffer from crystal transformation

crystal form conversion ([1]; at room temperature): convert to the crystal form C
Compound: O=c1cc(-c2ccccc2)oc2c(O)c(O)ccc12 [crystal form S, 7,8-dihydroxyflavone]

weight gain in the dynamic vapor sorption plot [2]: less than 0.1%
Result on day 7 (XRPD) ([3]; High temperature 60° C.): No change
Result on day 15 (XRPD) ([3]; High temperature 60° C.): No change
Solubility 0.5 h ([4]; FaSSGF pH 1.6, 37° C.): 13.6 µg/mL (≈ 53.5 µM)
Solubility 2 h ([4]; FaSSGF pH 1.6, 37° C.): 18.7 µg/mL (≈ 73.6 µM)
Solubility 24 h ([4]; FaSSGF pH 1.6, 37° C.): 16.1 µg/mL (≈ 63.3 µM)
Residual solid XRPD [4, 5]: Crystal form N
Final pH [4, 6]: 1.6
Solubility 0.5 h ([4]; FaSSIF pH 6.5, 37° C.): 35.8 µg/mL (≈ 141 µM)
Solubility 2 h ([4]; FaSSIF pH 6.5, 37° C.): 38.7 µg/mL (≈ 152 µM)
Solubility 24 h ([4]; FaSSIF pH 6.5, 37° C.): 36.5 µg/mL (≈ 144 µM)
Residual solid XRPD [4, 7]: Crystal form N
Final pH [4, 8]: 6.4
Solubility 0.5 h ([4]; FeSSIF pH 5.0, 37° C.): 111.9 µg/mL (≈ 440 µM)
Solubility 2 h ([4]; FeSSIF pH 5.0, 37° C.): 114.2 µg/mL (≈ 449 µM)
Solubility 24 h ([4]; FeSSIF pH 5.0, 37° C.): 107.6 µg/mL (≈ 423 µM)
Residual solid XRPD [4, 9]: Crystal form N
Final pH [4, 10]: 5.0
Solubility 0.5 h ([4]; Water, 37° C.): 15.1 µg/mL (≈ 59.4 µM)
Solubility 2 h ([4]; Water, 37° C.): 11.8 µg/mL (≈ 46.4 µM)
Solubility 24 h ([4]; Water, 37° C.): 3.1 µg/mL (≈ 12.2 µM)
Residual solid XRPD [4, 11]: Crystal form C
Final pH ([4]; Water, supernatant at 24 h): 5.2
Compound: O=c1cc(-c2ccccc2)oc2c(O)c(O)ccc12 [Crystal form N, 7,8-dihydroxyflavone]
crystal form stability (general statement) [3]: stable and does not suffer from crystal transformation

crystal form conversion ([1]; at room temperature): convert to the crystal form N
Compound: O=c1cc(-c2ccccc2)oc2c(O)c(O)ccc12 [crystal form E, 7,8-dihydroxyflavone]

crystal form conversion ([1]; at room temperature): convert to other crystal forms
Compound: O=c1cc(-c2ccccc2)oc2c(O)c(O)ccc12 [crystal form H, 7,8-dihydroxyflavone]

Compound: O=c1cc(-c2ccccc2)oc2c(O)c(O)ccc12 [crystal form T, 7,8-dihydroxyflavone]
crystal form conversion ([1]; at room temperature): cannot exist at room temperature for a long period
